Where two headings read alike, the source gives them in different places.
Tests used:
γ-secretase complex = γ-secretase complex (Homo sapiens, UniProt P49768); assay: APP-C99 counter assay (GSI reporter assay); assay type: cell-based; parameters: AUC APP: scale not given here; details: for AUC APP: area under the 14-point dose-response curve, replicates averaged
Experimental: To this end, we used a previously established reporter gene-based GSI assay (APP-C99) (Fig. 3A), which measures γ-secretase activity through cleavage of amyloid precursor protein (APP), another protein processed by the γ-secretase complex[24]
Plasmids for APP and luciferase are described in[24] and the renilla plasmid described above generated for this project was used to normalize firefly values. 24 h post transfection cells were seeded on compound plates and cells were cultivated for 24 h before luciferase signals were read, as described.
Two-fold concentrations of compounds were diluted in 10 µl cell culture medium and brought to one-fold by seeding 10 µl containing 4000 cells of the respective cell type on each well of a 384-well plate, as described above. Analogous to the previous assays, all plates contained one DMSO and DAPT control column with the Notch reporter cell line (#A1-11) and a DMSO only and Notch inhibitor control plate was read before the measuring the screening plates. In addition, DAPT and DMSO were spotted in a dose response fashion, and a minimum of four replicates were read. Dose-responses of compounds were recorded in triplicates for each concentration reading out the dual luciferase reporters, as described above. Dose response assays were read together in one session. To measure compound effects, the different assays dose–response curves were fitted using the log(inhibitor) vs. response – Variable slope (model: Y = Bottom + (Top–Bottom)/(1 + 10^((LogIC50-X)*HillSlope)) equation.
A DMSO plate was read before measuring luciferase activity of compound spotted plates. APP firefly luciferase reporter assays were read with a signal integration time of 0.1 s, instead of 0.5 s used for the Notch reporter to reduce signal overlap between wells. […] The area-under-the-curve (AUC) was calculated on dose–response curves using Graphpad Prism.

Notch signalling = assay: Notch reporter assay (12xCSL firefly luciferase / renilla luciferase, HEK293T Notch1ΔE reporter cell line clone #A1-11); assay type: cell-based; parameters: AUC Notch: scale not given here; details: for Bottom (Emax): Emax indicated independent from assay constraints, in % (unit assumed); for AUC Notch: area under the 14-point dose-response curve, replicates averaged
Excerpt: To identify novel Notch inhibitors in an unbiased manner, we generated a novel Notch reporter construct, which records the level of Notch signalling immediately downstream of receptor activation rather than further downstream in the signalling cascade, for example at the level of Hes and Hey proteins (Fig. 1B). […] The reporter construct carries piggy-bac sequences at both ends of the promoter-reporter cassette as well as cSH4 insulator elements to reduce transcriptional noise[21] and was transfected into HEK293T cells. To achieve a robust level of Notch receptor activity in the HEK293T reporter cell line and to confine the search for inhibitors to compounds affecting the receptor function and eliminating the need for ligand activation, a truncated ligand-independent version of the Notch1 receptor, mimicking an S2-cleaved Notch1 receptor (Notch1ΔE) and spontaneously activated by S3-cleavage[22] (Fig. 1C) was introduced into the cell line carrying the reporter construct (Fig. 1D). In addition, an HSV-TK-renilla luciferase plasmid was introduced into the cell line as an internal control for normalisation of the reporter expression (Fig. 1D).
A de novo Notch reporter construct, composed of six dimeric CSL binding sites linked to a basic b-globin promoter and followed by a firefly luciferase gene and a PEST degradation domain was synthesised (GeneArt). The construct was stably introduced into HEK293T cells, and zeocin (0.1 mg/ml) or Puromycin (0.05 mg/ml (ThermoFisher, cat #R25001, #A1113803) were used as selection markers. A clonal cell line (clone #A1) with robust renilla expression and enhanced firefly luciferase expression upon transient transfection of Notch1 ICD or Notch1ΔE constructs was selected, and a UB6 promoter-Notch1DE construct was stably introduced into this cell line using Blasticidin (0.1 mg/ml; ThermoFisher, cat #A1113903) as a selection marker. Stable cell lines were generated by serial dilution and only clonal colonies were selected for further evaluation. To measure luciferase reporter activity, cells were washed in cold PBS, detached, and collected in pre-warmed cell culture medium and centrifugated for five min at 200xg. The cell pellet was resuspended in medium, cells were counted, and 4,000 cells were seeded in each well of a white 384 well plate (Corning #3670) in 20 µl medium containing either DMSO or the GSI DAPT (N-[N-(3,5-Difluorophenacetyl)-L-alanyl]-S-phenylglycine t-butyl ester, Sigma-Aldrich, cat #565784-M) and incubated for 24 h. The efficacy of the reporter gene system was determined by monitoring the level of luciferase activation in the absence or presence of different amounts of DAPT in several cell clones. Luciferase activity was assessed using the dual-GLO luciferase detection kit from Promega (cat # E2920), following the manufacturer’s instructions. A minimum of two technical replicates were measured per clone using a SpectraMaxi3 plate reader (Molecular Devices). Reporter activity of different clones and in response to DAPT was assessed by normalising firefly (Notch activity) to renilla luciferase signals. Normalised signals of individual clones cultivated in DMSO were then compared to corresponding signals generated with DAPT-treated cells. The cell clone with the strongest signal to control ratio (DMSO to DAPT) was then selected for further exploration (clone #A1-11).
37,966 compounds were spotted by the compound center at SciLifeLab (https://www.scilifelab.se/) on a total of 120 plates (Greiner #781080) at a fixed concentration of 10 µM and the screening process spanned five consecutive sessions. The layout of each plate contained one column for DMSO and one for DAPT controls to determine the quality and reliability of the data. DAPT controls were spotted at 10 µM and DMSO was spotted in an equimolar volume. In addition, plates spotted with only DMSO were utilized to investigate the impact of plate effects before and after each session. […]

[1] = 14p APP assay DR, bottom constrained to Emax of positive control LY-411575
[2] = Homo sapiens, HEK-293T, 14p Notch assay DR, bottom constrained to Emax of positive control DAPT, read-out: approximated IC50
[3] = Homo sapiens, HEK-293T, 14p Notch assay DR, log10 value, bottom constrained to Emax of positive control DAPT, read-out: approximated LogIC50 (converted)

SMILES: COc1cc(Nc2nc(-c3cccc(O)c3)cn3ccnc23)cc(OC)c1OC [CBK066361]
- Hill-slope (γ-secretase complex; [1]): -3.83e-12
- curve fit information (γ-secretase complex; [1]): IC50 indeterminate
- AUC APP (γ-secretase complex): 487.2
- Bottom (Emax) (Notch signalling; 14p Notch assay DR): 55.6
- IC50 (Notch signalling; [2]): 12 µM
- IC50 (Notch signalling; [3]): 12.6 µM
- AUC Notch (Notch signalling): 316.0

SMILES: COc1cc(Nc2nc(-c3ccc(F)c(Cl)c3)cn3ccnc23)cc(OC)c1OC [CBK037275]
- Hill-slope (γ-secretase complex; [1]): -0.9
- AUC APP (γ-secretase complex): 479.3
- Bottom (Emax) (Notch signalling; 14p Notch assay DR): 90.9
- AUC Notch (Notch signalling): 361.0

SMILES: CCc1c(C)sc(NC(=O)C2CCC2)c1C(=O)NCc1cccnc1 [CBK307414]
- Hill-slope (γ-secretase complex; [1]): 0.0127
- AUC APP (γ-secretase complex): 416.6
- IC50 (Notch signalling; Homo sapiens, HEK-293T, 14-point dose-response, Fig. 4, read-out: approximated IC50, Notch reporter assay): 7.5 µM
- IC50 (Notch signalling; Homo sapiens, HEK-293T, 14p Notch assay DR, bottom constrained to Emax of positive control RO4929097, read-out: approximated IC50): 7.4 µM
- IC50 (Notch signalling; Homo sapiens, HEK-293T, 14p Notch assay DR, log10 value, bottom constrained to Emax of positive control RO4929097, read-out: approximated LogIC50 (converted)): 7.94 µM
- AUC Notch (Notch signalling): 311.0

SMILES: CC(=O)Oc1cccc(N2C(=O)c3ccc(Oc4cccc(N)c4)cc3C2=O)c1 [CBK261099]
- Hill-slope (γ-secretase complex; [1]): -2.8
- remaining activity at 10 µM (γ-secretase complex; 24 h, 10µM, APP-C99 counter assay, read-out: 3p-DR in % of DMSO counter): 80.5%
- remaining activity at 25 µM (γ-secretase complex; 24 h, 25µM, APP-C99 counter assay, read-out: 3p-DR in % of DMSO counter): 59.7%
- remaining activity at […] (γ-secretase complex; 24 h, 1,25µM, APP-C99 counter assay, read-out: 3p-DR in % of DMSO counter): 124%
- AUC APP (γ-secretase complex): 428.7
- Bottom (Emax) (Notch signalling; 14p Notch assay DR): 18.6
- IC50 (Notch signalling; [2]): 1.8 µM
- IC50 (Notch signalling; [3]): 1.58 µM
- activity at 10 µM (Notch signalling; Homo sapiens, HEK-293T, 10 µM, primary screen, 24 h, unit from Fig. 2 legend, read-out: Primary screen at 10 µM (Notch reporter signal)): 31.5%
- activity at 10 µM (Notch signalling; Homo sapiens, HEK-293T, 10 µM, three-dose confirmation screen, unit from Fig. 2 legend, read-out: Hit confirmation at 10 µM (Notch reporter signal)): 28.1%
- activity at 10 µM (Notch signalling; Homo sapiens, HEK-293T, 10µM, 3-point DR confirmation screen, Notch reporter assay, read-out: inhibitor ratio in % of DMSO in 3 point DR): 28.1%
- activity at 10 µM (Notch signalling; Homo sapiens, HEK-293T, 10 µM, sheet conf vs counter 10 µM, same values as 3-point DR confirmation screen, read-out: Confirmation screen): 28.1%
- activity at 25 µM (Notch signalling; Homo sapiens, HEK-293T, 25µM, 3-point DR confirmation screen, Notch reporter assay, read-out: inhibitor ratio in % of DMSO in 3 point DR): 20.3%
- activity at 25 µM (Notch signalling; Homo sapiens, HEK-293T, 25 µM, Notch reporter 3-point dose-confirmation assay, sheet "conf vs counter 25 µM", read-out: Confirmation screen): 20.3%
- activity (Notch signalling; Homo sapiens, HEK-293T, 1,25µM, 3-point DR confirmation screen, Notch reporter assay, read-out: inhibitor ratio in % of DMSO in 3 point DR): 87.9%
- AUC Notch (Notch signalling): 282.0
